The target in this experiment is T1, wildtype HIV-1 protease (Human immunodeficiency virus type 1 group M subtype B, UniProt P04585).
T1 construct: the wildtype HIV-1 protease (which was expressed in Escherichia coli); made in house; host or cells: Escherichia coli
Put plainly: Assay for inhibition of microbial expressed HIV protease (Pepcleav). The experiment is classed as biochemical. To be noted: wild type HIV-1 protease expressed in E. coli, peptide substrate, pH 5.5; mean of at least two independent experiments; read-out: Pepcleav. Here is the method: Assay for Inhibition of Microbial Expressed HIV Protease (“Pepcleav”)
Studies of the inhibition of the wildtype HIV-1 protease (which was expressed in Escherichia coli) were carried out with a peptide substrate [Val-Ser-Gln-Asn-(βnaphthyl)Ala-Pro-Ile-Val (SEQ ID NO:1)]. The inhibitor is first preincubated with the HIV-1 protease (wild type) enzyme in assay buffer (50 mM sodium acetate, pH 5.5, 100 mM NaCl, and 0.1% BSA) for 30 minutes at room temperature. Substrate is added to 400 micromolar in a total volume of 20 microliters containing 20 picomolar HIV-1 protease (final) and the reaction is incubated for 1 hour at 30° C. The reaction is quenched with the addition of formic acid and indinavir to 0.012% and 150 nM final concentrations, respectively. The product formation is determined after separation of product and substrate on a Zorbax Eclipse XDB-C 18 column connected to an API 4000 mass spectrometer (Applied Biosystems) with multiple reaction monitoring (transitions were 644.5/428.9 and 615.4/422.2 (M1/M3) for product and indinavir respectively). The extent of inhibition of the reaction is determined from the peak area of the products.

Drawing on US9315475B2 (MERCK SHARP & DOHME CORP., priority 2011, dated 2016), this text covers IC50 for 23 compounds.

For `COC(=O)N[C@H](C(=O)Nc1cncnc1CC[C@@H]1CN[C@H](COC(=O)NCc2ccc(F)cc2)CO1)C(c1ccccc1)c1ccccc1` [Example 36, N-(4-{2-[(2R,5S)-5-({[(4-fluorobenzyl)carbamoyl]oxy}methyl)morpholin-2-yl]ethyl}pyrimidin-5-yl)-Nα-(methoxycarbonyl)-β-phenyl-L-phenylalaninamide], the IC50 was 24 nM.

As for `COC(=O)N[C@H](C(=O)Nc1ccccc1CC[C@@H]1CN[C@H](CSc2ccccc2)CO1)C(c1ccccc1)c1ccccc1` [Example 62, Nα-(methoxycarbonyl)-β-phenyl-N-[2-(2-{(2R,5S)-5-[(phenylsulfanyl)methyl]morpholin-2-yl}ethyl)phenyl]-L-phenylalaninamide], the IC50 amounted to 130 nM.

On to `COC(=O)N[C@H](C(=O)Nc1ccccc1CC[C@@H]1CN[C@H](COC(=O)N[C@H]2COC[C@@H]2F)CO1)C(c1ccccc1)c1ccccc1` [Example 29, N-[2-(2-{(2R,5S)-5-[({[(3S,4R)-4-fluorotetrahydrofuran-3-yl]carbamoyl}oxy)methyl]morpholin-2-yl}ethyl)phenyl]-Nα-(methoxycarbonyl)-β-phenyl-L-phenylalaninamide], for which the IC50 is 18 nM.

With `COC(=O)N[C@H](C(=O)Nc1ccccc1CC[C@@H]1CN[C@H](C(=O)NCc2ccccc2)CO1)C(c1ccccc1)c1ccccc1` [Example 2, N-(2-{2-[(2R,5S)-5-(benzylcarbamoyl)morpholin-2-yl]ethyl}phenyl)-Nα-(methoxycarbonyl)-β-phenyl-L-phenylalaninamide], the IC50 is 1.4 nM.

Turning to `COC(=O)N[C@H](C(=O)Nc1ccccc1CC[C@@H]1CN[C@H](CNC(=O)c2ccccc2)CO1)C(c1ccccc1)c1ccccc1` [Example 52, Nα-(methoxycarbonyl)-β-phenyl-N-(2-{2-[(2R,5R)-5-{[(phenylcarbonyl)amino]methyl}morpholin-2-yl]ethyl}phenyl)-L-phenylalaninamide], the IC50 was determined as 96 nM.

On to `N[C@H](C(=O)Nc1cncc(F)c1CC[C@@H]1CN[C@H](COC(=O)NCCN2CCCC2)CO1)C(c1ccc(F)cc1)c1ccc(F)cc1` [Example 233, 4-fluoro-β-(4-fluorophenyl)-N-(5-fluoro-4-{2-[(2R,5S)-5-({[(2-pyrrolidin-1-ylethyl)carbamoyl]oxy}methyl)morpholin-2-yl]ethyl}pyridin-3-yl)-L-phenylalaninamide], for which the IC50 came to 110 nM.

Take `COC(=O)N[C@H](C(=O)Nc1ccccc1CC[C@@H]1CN[C@H](CNC(=O)Nc2ccccn2)CO1)C(c1ccccc1)c1ccccc1` [Example 42, methyl N-[(1S)-1-benzhydryl-2-oxo-2-[[2-[2-[(2R,5R)-5-[(2-pyridylcarbamoylamino)methyl]morpholin-2-yl]ethyl]phenyl]amino]ethyl]carbamate]: the IC50 was found to be 17 nM.

For the compound `COC(=O)N[C@H](C(=O)Nc1ccccc1CC[C@@H]1CN[C@H](COC(=O)NCc2ccccc2F)CO1)C(c1ccccc1)c1ccccc1` [Example 12, N-(2-{2-[(2R,5S)-5-({[(2-fluorobenzyl)carbamoyl]oxy}methyl)morpholin-2-yl]ethyl}phenyl)-Nα-(methoxycarbonyl)-β-phenyl-L-phenylalaninamide], the IC50 is 3.6 nM.

In the case of `COC(=O)N[C@H](C(=O)Nc1ccccc1CC[C@@H]1CN[C@H](CNC(=O)c2ccccc2Cl)CO1)C(c1ccccc1)c1ccccc1` [Example 55, methyl N-[(1S)-1-benzhydryl-2-[[2-[2-[(2R,5R)-5-[[(2-chloro-benzoyl)amino]methyl]morpholin-2-yl]ethyl]phenyl]amino]-2-oxo-ethyl]carbamate], the IC50 worked out at 30 nM.

Turning to `COC(=O)N[C@H](C(=O)Nc1c(CC[C@@H]2CN[C@H](COC(=O)NCC(F)(F)F)CO2)ccnc1OC)C(c1ccccc1)c1ccccc1` [Example 35, Nα-(methoxycarbonyl)-N-(2-methoxy-4-{2-[(2R,5S)-5-({[(2,2,2-trifluoroethyl)carbamoyl]oxy}methyl)morpholin-2-yl]ethyl}pyridin-3-yl)-β-phenyl-L-phenylalaninamide], the IC50 amounted to 60 nM.

For `N[C@H](C(=O)Nc1cccc(F)c1CC[C@@H]1CN[C@H](COC(=O)NCC(F)(F)F)CO1)[C@H](c1ccc(F)cc1)c1ccc(Oc2ccccc2)cc1` [Example 230, (βS)-β-(4-fluorophenyl)-N-(3-fluoro-2-{2-[(2R,5S)-5-({[(2,2,2-trifluoroethyl)carbamoyl]oxy}methyl)morpholin-2-yl]ethyl}phenyl)-O-phenyl-L-tyrosinamide], the IC50 was determined as 180 nM.

Take `COC(=O)N[C@H](C(=O)Nc1ccccc1CC[C@@H]1CN[C@H](COC(=O)NCc2cncs2)CO1)C(c1ccccc1)c1ccccc1` [Example 19, methyl N-[(1S)-1-benzhydryl-2-oxo-2-[[2-[2-[(2R,5S)-5-(thiazol-5-ylmethylcarbamoyloxymethyl)morpholin-2-yl]ethyl]phenyl]amino]ethyl]carbamate]: the IC50 amounted to 48 nM.

As for `N[C@@H](Cc1ccccc1C1CC1)C(=O)Nc1cncc(F)c1CC[C@@H]1CN[C@H](COC(=O)NCC(F)(F)F)CO1` [Example 189, 2-cyclopropyl-N-(5-fluoro-4-{2-[(2R,5S)-5-({[(2,2,2-trifluoroethyl)carbamoyl]oxy}methyl)morpholin-2-yl]ethyl}pyridin-3-yl)-L-phenylalaninamide], the IC50 was determined as 1730 nM.

As to `N[C@@H](Cc1cccc2ccccc12)C(=O)Nc1cncc(F)c1CC[C@@H]1CN[C@H](COC(=O)NCc2ccc(F)cc2)CO1` [Example 191, {(3S,6R)-6-[2-(3-{[(2S)-2-amino-3-naphthalen-1-ylpropanoyl]amino}-5-fluoropyridin-4-yl)ethyl]morpholin-3-yl}methyl (4-fluorobenzyl)carbamate (non-preferred name)], the IC50 was 130 nM.

As to `CCNC(=O)[C@@H]1CO[C@H](CCc2ccccc2NC(=O)[C@@H](NC(=O)OC)C(c2ccccc2)c2ccccc2)CN1` [Example 3, N-(2-{2-[(2R,5S)-5-(ethylcarbamoyl)morpholin-2-yl]ethyl}phenyl)-Nα-(methoxycarbonyl)-β-phenyl-L-phenylalaninamide], the IC50 was found to be 15 nM.

Regarding `COC(=O)Nc1ccccc1CC[C@@H]1CO[C@H](CCc2ccccc2NC(=O)[C@@H](NC(=O)OC)C(c2ccccc2)c2ccccc2)CN1` [Example 76, methyl N-[(1S)-1-benzhydryl-2-[[2-[2-[(2R,5R)-5-[2-[2-(methoxy-carbonylamino)phenyl]ethyl]morpholin-2-yl]ethyl]phenyl]amino]-2-oxo-ethyl]carbamate], the IC50 was found to be 52 nM.

As for `COC(=O)N[C@H](C(=O)Nc1ccccc1CC[C@@H]1CN[C@H](COC(=O)NC2CCC2)CO1)C(c1ccccc1)c1ccccc1` [Example 23, methyl N-[(1S)-1-benzhydryl-2-[[2-[2-[(2R,5S)-5-(cyclobutylcarbamoyloxymethyl)morpholin-2-yl]ethyl]phenyl]amino]-2-oxo-ethyl]carbamate], the IC50 was found to be 80 nM.

`COC(=O)N[C@H](C(=O)Nc1ccccc1CC[C@@H]1CN[C@H](COC(=O)NCC(F)F)CO1)C(c1ccccc1)c1ccccc1` [Example 24, methyl N-[(1S)-1-benzhydryl-2-[[2-[2-[(2R,5S)-5-(2,2-difluoroethylcarbamoyloxymethyl)morpholin-2-yl]ethyl]phenyl]amino]-2-oxo-ethyl]carbamate]: the IC50 amounted to 85 nM.

Regarding `CCC[C@H](c1ccccc1)[C@H](N)C(=O)Nc1cccc(F)c1CC[C@@H]1CN[C@H](COC(=O)NCC(F)(F)F)CO1` [Example 228, (βR)-N-(3-fluoro-2-{2-[(2R,5S)-5-({[(2,2,2-trifluoroethyl)carbamoyl]oxy}methyl)morpholin-2-yl]ethyl}phenyl)-β-propyl-L-phenylalaninamide], the IC50 came out at 190 nM.

`COC(=O)N[C@H](C(=O)Nc1ccccc1CC(F)[C@@H]1CN[C@H](COC(=O)NCc2ccc(F)cc2)CO1)C(c1ccccc1)c1ccccc1` (stereo partly drawn) [Example 78, N-(2-{2-fluoro-2-[(2S,5S)-5-({[(4-fluorobenzyl)carbamoyl]oxy}methyl)morpholin-2-yl]ethyl}phenyl)-Nα-(methoxycarbonyl)-β-phenyl-L-phenylalaninamide]: the IC50 turned out to be 59 nM.

Consider `COC(=O)N[C@H](C(=O)Nc1cccc(F)c1CC[C@@H]1CN[C@H](COC(=O)NCC(F)(F)F)CO1)[C@H](c1ccc(F)cc1)c1cccc(OC)c1` [Example 306, (βR)-4-fluoro-N-(3-fluoro-2-{2-[(2R, 5S)-5-({[(2,2,2-trifluoroethyl)carbamoyl]oxy}methyl)morpholin-2-yl]ethyl}phenyl)-Nα-(methoxy-carbonyl)-β-(3-methoxyphenyl)-L-phenylalaninamide], for which the IC50 was determined as 170 nM.

As for `COC(=O)N[C@H](C(=O)Nc1ccccc1CC[C@@H]1CN[C@H](CCCc2ccccc2)CO1)C(c1ccccc1)c1ccccc1` [Example 67, methyl{(1S)-1-(diphenylmethyl)-2-oxo-2-[(2-{2-[(2R,5R)-5-(3-phenylpropyl)morpholin-2-yl]ethyl}phenyl)amino]ethyl}carbamate], the IC50 was found to be 26 nM.

As for `COC(=O)N[C@H](C(=O)Nc1cnccc1CC[C@@H]1CN[C@H](COC(=O)NCC(F)(F)F)CO1)C(c1ccccc1)c1ccccc1` [Example 34, Nα-(methoxycarbonyl)-β-phenyl-N-(4-{2-[(2R,5S)-5-({[(2,2,2-trifluoroethyl)carbamoyl]oxy}methyl)morpholin-2-yl]ethyl}pyridin-3-yl)-L-phenylalaninamide], the IC50 was found to be 14 nM.
